Measurements reported in ChEMBL document CHEMBL2074138, “New multidrug-resistance-reversing drugs, MS-209 and SDZ PSC 833” (Cancer Chemother Pharmacol, 1997).

Biological target: ATP-dependent translocase ABCB1 (Homo sapiens, UniProt P08183)
Experiment: TP_TRANSPORTER: increase in Doxorubicin intracellular accumulation (Doxorubicin: 0.05 ug/mL, MS-209: 3 uM) in K562/ADM cells
Format: functional, cell-based
Settings: k562/adr

ATP-dependent translocase ABCB1, sequence (P08183 whole entry): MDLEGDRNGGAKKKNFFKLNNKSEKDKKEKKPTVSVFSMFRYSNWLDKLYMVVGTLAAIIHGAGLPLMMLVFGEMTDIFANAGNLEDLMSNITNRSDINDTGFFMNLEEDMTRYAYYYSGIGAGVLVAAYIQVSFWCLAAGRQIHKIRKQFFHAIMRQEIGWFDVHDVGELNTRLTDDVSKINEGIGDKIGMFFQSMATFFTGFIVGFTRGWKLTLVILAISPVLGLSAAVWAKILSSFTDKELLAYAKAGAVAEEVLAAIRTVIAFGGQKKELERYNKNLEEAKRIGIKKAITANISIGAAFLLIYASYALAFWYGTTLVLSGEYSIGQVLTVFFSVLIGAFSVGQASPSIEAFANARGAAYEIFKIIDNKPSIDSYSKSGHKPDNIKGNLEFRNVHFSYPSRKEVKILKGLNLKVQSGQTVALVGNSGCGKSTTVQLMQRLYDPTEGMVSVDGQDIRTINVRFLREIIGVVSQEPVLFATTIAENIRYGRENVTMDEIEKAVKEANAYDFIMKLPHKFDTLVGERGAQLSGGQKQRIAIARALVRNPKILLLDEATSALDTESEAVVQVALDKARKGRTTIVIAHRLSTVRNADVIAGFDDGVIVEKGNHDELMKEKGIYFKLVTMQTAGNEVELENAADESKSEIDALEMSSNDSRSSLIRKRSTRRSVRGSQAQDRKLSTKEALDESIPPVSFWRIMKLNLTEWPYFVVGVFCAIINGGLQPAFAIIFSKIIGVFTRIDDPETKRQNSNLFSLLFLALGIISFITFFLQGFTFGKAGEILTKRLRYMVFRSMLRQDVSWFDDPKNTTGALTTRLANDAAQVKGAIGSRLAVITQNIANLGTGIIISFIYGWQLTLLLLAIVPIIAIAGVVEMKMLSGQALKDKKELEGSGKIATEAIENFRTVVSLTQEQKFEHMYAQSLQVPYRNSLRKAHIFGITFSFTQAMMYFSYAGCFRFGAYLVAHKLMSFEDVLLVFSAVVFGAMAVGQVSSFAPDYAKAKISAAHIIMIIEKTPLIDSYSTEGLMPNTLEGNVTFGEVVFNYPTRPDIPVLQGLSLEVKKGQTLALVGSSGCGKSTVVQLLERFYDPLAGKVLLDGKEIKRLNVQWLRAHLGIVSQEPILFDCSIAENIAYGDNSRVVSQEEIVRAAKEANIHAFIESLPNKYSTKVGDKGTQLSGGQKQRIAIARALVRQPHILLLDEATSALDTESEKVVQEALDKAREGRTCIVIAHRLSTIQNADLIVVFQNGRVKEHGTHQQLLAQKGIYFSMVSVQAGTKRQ

Activity: inhibitor [+]
Compound: O=C(C(c1ccccc1)c1ccccc1)N1CCN(C[C@@H](O)COc2cccc3ncccc23)CC1
